Data taken from patent publication US20260274833A1 (NiKang Therapeutics, Inc., priority 2022, published 2026).

Target: T1, CDK2 (Homo sapiens, UniProt P24941)
T1 construct: endogenous in cells; host or cells: OVCAR3 cells
Experiment: Phospho-RB measurement in OVCAR3 cells (HTRF phospho-RB cellular kit)
Format: cell-based
Settings: inhibition of RB phosphorylation at S807/811 (HTRF, TR-FRET ratio 665/620), 24 h compound treatment, 0.3 to 10,000 nM
How it was run: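 IC50 came from a four-parameter logistic fit of the DMSO-normalized TR-FRET ratio (665/620 nm). That ratio reflects RB phosphorylation at S807/811, read with an HTRF antibody pair 4 h after adding lysate at room temperature.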

Structure (SMILES) | IC50 [nM]
CC(C)(C)c1nc(-c2cccc(NS(=O)(=O)N3Cc4cccc(-c5cccc(C#N)c5)c4C3)c2F)c(-c2ccnc(NC3CCN(S(C)(=O)=O)CC3)n2)s1 [Example 227, N-(3-(2-(tert-butyl)-5-(2-((1-(methylsulfonyl)-piperidin-4-yl)amino)-pyrimidin-4-yl)thiazol-4-yl)-2-fluoro-phenyl)-4-(3-cyanophenyl)-isoindoline-2-sulfonamide] | 517
CC(C)(C)c1nc(-c2cccc(NS(=O)(=O)N3Cc4cccc(C5CCCCC5)c4C3)c2F)c(-c2ccnc(NC3CCN(S(C)(=O)=O)CC3)n2)s1 [Example 228, N-(3-(2-(tert-butyl)-5-(2-((1-(methylsulfonyl)-piperidin-4-yl)amino)-pyrimidin-4-yl)thiazol-4-yl)-2-fluoro-phenyl)-4-cyclohexyliso-indoline-2-sulfonamide] | 1510
CC(O)c1cccc2c1CCN2S(=O)(=O)Nc1cccc(-c2nc(C(C)(C)C)sc2-c2ccnc(NC3CC4(C3)CS(=O)(=O)C4)n2)c1F (centres unmarked) [Example 229, N-(3-(2-(tert-butyl)-5-(2-((2,2-dioxido-2-thiaspiro[3.3]heptan-6-yl)amino)-pyrimidin-4-yl)thiazol-4-yl)-2-fluoro-phenyl)-4-(1-hydroxyethyl)-indoline-1-sulfonamide] | 145
CC(C)(C)c1nc(-c2cccc(NS(=O)(=O)N3CCc4c3cccc4C(C)(C)O)c2F)c(-c2ccnc(NC3CC4(C3)CS(=O)(=O)C4)n2)s1 [Example 230, N-(3-(2-(tert-butyl)-5-(2-((2,2-dioxido-2-thiaspiro[3.3]heptan-6-yl)amino)-pyrimidin-4-yl)thiazol-4-yl)~2-fluoro-phenyl)-4-(2-hydroxypropan-2-yl)-indoline-1-sulfonamide] | 354
CC(C)(C)c1nc(-c2cccc(NS(=O)(=O)N3Cc4ccc(CO)cc4C3)c2F)c(-c2ccnc(NC3CC4(C3)CS(=O)(=O)C4)n2)s1 [Example 231, N-(3-(2-(tert-butyl)-5-(2-((2,2-dioxido-2-thiaspiro[3.3]heptan-6-yl)amino)-pyrimidin-4-yl)thiazol-4-yl)-2-fluorophenyl)-5-(hydroxymethyl)-isoindoline-2-sulfonamide] | 77.4
CC(C)(C)c1nc(-c2cccc(NS(=O)(=O)N3Cc4cccc(Cc5ccccc5)c4C3)c2F)c(-c2ccnc(NC3CC4(C3)CS(=O)(=O)C4)n2)s1 [Example 232, 4-benzyl-N-(3-(2-(tert-butyl)-5-(2-((2,2-dioxido-2-thiaspiro[3.3]heptan-6-yl)amino)-pyrimidin-4-yl)thiazol-4-yl)-2-fluorophenyl)-isoindoline-2-sulfonamide] | 939
COCCN1CCN(c2ccc(Nc3nccc(-c4sc(C(C)(C)C)nc4-c4cccc(NS(=O)(=O)N5CCc6ccc(C#N)cc65)c4F)n3)cc2)CC1 [Example 233, N-(3-(2-(tert-butyl)-5-(2-((4-(4-(2-methoxy-ethyl)piperazin-1-yl)phenyl)-amino)-pyrimidin-4-yl)thiazol-4-yl)-2-fluorophenyl)-6-cyanoindoline-1-sulfonamide] | 765
COCCOCCN1CCN(c2ccc(Nc3nccc(-c4sc(C(C)(C)C)nc4-c4cccc(NS(=O)(=O)N5CCc6ccc(C#N)cc65)c4F)n3)cc2)CC1 [Example 234, N-(3-(2-(tert-butyl)-5-(2-((4-(4-(2-(2-methoxy-ethoxy)ethyl)piperazin-1-yl)phenyl)amino)-pyrimidin-4-yl)thiazol-4-yl)-2-fluorophenyl)-6-cyanoindoline-1-sulfonamide] | 1200
CC(C)(C)OC(=O)N1CCN(c2ccc(Nc3nccc(-c4sc(C(C)(C)C)nc4-c4cccc(NS(=O)(=O)N5CCc6ccc(C#N)cc65)c4F)n3)cc2)CC1 [Example 235, tert-butyl 4-(4-((4-(2-(tert-butyl)-4-(3-((6-cyanoindoline)-1-sulfonamido)-2-fluorophenyl)thiazol-5-yl)pyrimidin-2-yl)amino)phenyl) piperazine-1-carboxylate] | 3390
CC1(c2nc(-c3cccc(NS(=O)(=O)N4CCc5ccc(C#N)cc54)c3F)c(-c3ccnc(Nc4ccc(N5CCNCC5)cc4)n3)s2)CCOCC1 [Example 236, 6-cyano-N-(2-fluoro-3-(2-(4-methyltetrahydro-2H-pyran-4-yl)-5-(2-((4-(piperazin-1-yl)-phenyl)amino)-pyrimidin-4-yl)thiazol-4-yl)-phenyl)indoline-1-sulfonamide] | 477
CC(C)(C)c1nc(-c2cccc(NS(=O)(=O)N3Cc4cccc(OCCO)c4C3)c2F)c(-c2ccnc(NC3CCN(S(C)(=O)=O)CC3)n2)s1 [Example 237, N-(3-(2-(tert-butyl)-5-(2-((1-(methylsulfonyl)-piperidin-4-yl)amino)-pyrimidin-4-yl)thiazol-4-yl)-2-fluoro-phenyl)-4-(2-hydroxyethoxy)-isoindoline-2-sulfonamide] | 297
CC(C)(C)c1nc(-c2cccc(NS(=O)(=O)N3CCc4c(CC#N)cccc43)c2F)c(-c2ccnc(NC3CC4(C3)CS(=O)(=O)C4)n2)s1 [Example 238, N-(3-(2-(tert-butyl)-5-(2-((2,2-dioxido-2-thiaspiro[3.3]heptan-6-yl)amino)-pyrimidin-4-yl)thiazol-4-yl)-2-fluoro-phenyl)-4-(cyanomethyl) indoline-1-sulfonamide] | 295
CC(C)(C)c1nc(-c2cccc(NS(=O)(=O)N3Cc4ccnc(O)c4C3)c2F)c(-c2ccnc(NC3CCN(S(C)(=O)=O)CC3)n2)s1 [Example 239, N-(3-(2-(tert-butyl)-5-(2-((1-(methylsulfonyl)-piperidin-4-yl)amino)-pyrimidin-4-yl)thiazol-4-yl)-2-fluoro-phenyl)-4-hydroxy-1,3-dihydro-2H-pyrrolo[3,4-c] pyridine-2-sulfonamide] | 4690
CC1(c2nc(-c3cccc(NS(=O)(=O)N4CCc5ccc(C#N)cc54)c3F)c(-c3ccnc(NC4CC5CS(=O)(=O)CC5C4)n3)s2)CCOCC1 (centres unmarked) [Example 240, 6-cyano-N-(3-(5-(2-((2,2-dioxidohexa-hydro-1H-cyclopenta[c]thiophen-5-yl)amino)-pyrimidin-4-yl)-2-(4-methyl-tetrahydro-2H-pyran-4-yl)thiazol-4-yl)-2-fluorophenyl)-indoline-1-sulfonamide] | 38.2
CN(C)Cc1cccc(Nc2nccc(-c3sc(C(C)(C)C)nc3-c3cccc(NS(=O)(=O)N4CCc5ccc(C#N)cc54)c3F)n2)c1 [Example 241, N-(3-(2-(tert-butyl)-5-(2-((3-((dimethylamino)-methyl)phenyl)-amino)pyrimidin-4-yl)thiazol-4-yl)-2-fluorophenyl)-6-cyanoindoline-1-sulfonamide] | 521
CC(C)(C)c1nc(-c2cccc(NS(=O)(=O)N3CCc4ccc(C#N)cc43)c2F)c(-c2ccnc(Nc3ccc(S(C)(=O)=O)cc3)n2)s1 [Example 242, N-(3-(2-(tert-butyl)-5-(2-((4-(methylsulfonyl)-phenyl)amino)-pyrimidin-4-yl)thiazol-4-yl)-2-fluoro-phenyl)-6-cyanoindoline-1-sulfonamide] | 302
CC(C)(C)c1nc(-c2cccc(NS(=O)(=O)N3Cc4ccc(C(F)(F)F)cc4C3)c2F)c(-c2ccnc(NC3CCN(S(C)(=O)=O)CC3)n2)s1 [Example 243, N-(3-(2-(tert-butyl)-5-(2-((1-(methylsulfonyl)-piperidin-4-yl)amino)-pyrimidin-4-yl)thiazol-4-yl)-2-fluoro-phenyl)-5-(trifluoromethyl)-isoindoline-2-sulfonamide] | 1200
